Patent publication US7595401B2, “Therapeutic compounds and their use in cancer” (Myriad Pharmaceuticals, Inc., priority 2006, dated 2009)

These compounds were tested on purified human Hsp90 (assay: Binding Assay: fluorescence polarization with BODIPY-labeled geldanamycin). Conditions: 5 μM compound, BODIPY-GM 10 nM, Hsp90 30 nM.
Method in brief: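 Fluorescence polarization competition with BODIPY-geldanamycin (10 nM final) and human Hsp90 (30 nM final) in HEPES-KOH pH 7.3 buffer with molybdate, NP-40, DTT; 2% DMSO, overnight at room temperature. Read 485/530 nm; percent inhibition from mP normalized to DMSO controls, fluorescent-compound points excluded.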

| SMILES | % Inhibition at 5 μM Compound Concentration [%] |
| --- | --- |
| CC(C)(C)OC(=O)N1CCC[C@H]1C(=O)N1CCC(CCn2cnc(N)c3nc(Sc4cc5c(cc4Br)OCO5)nc2-3)CC1 [Example 731, tert-Butyl(2S)-2-{[4-(2-{6-amino-8-[(6-bromo-1,3-benzodioxol-5-yl)thio]-3H-purin-3-yl}ethyl)piperidin-1-yl]carbonyl}pyrrolidine-1-carboxylate] | 1.0 |
| C[C@H](NC(=O)OC(C)(C)C)C(=O)N1CCCC(Cn2cnc(N)c3nc(Sc4cc5c(cc4Br)OCO5)nc2-3)C1 (stereo partly drawn) [Example 779, tert-butyl {(1S)-2-[3-({6-amino-8-[(6-bromo-1,3-benzodioxol-5-yl)thio]-3H-purin-3-yl}methyl)piperidin-1-yl]-1-methyl-2-oxoethyl}carbamate] | 43.00 |

Same assay, conditions: BODIPY-GM 10 nM, Hsp90 30 nM

| SMILES | IC50 [nM] |
| --- | --- |
| CC(C)(C)OC(=O)N1CCC[C@H]1C(=O)N1CCC(CCn2c(Sc3cc4c(cc3Br)OCO4)nc3c(N)ncnc32)CC1 [Example 730, tert-Butyl(2S)-2-{[4-(2-{6-amino-8-[(6-bromo-1,3-benzodioxol-5-yl)thio]-9H-purin-9-yl}ethyl)piperidin-1-yl]carbonyl}pyrrolidine-1-carboxylate] | > 5000 |
| CC(C)(C)OC(=O)N1CCCC[C@H]1C(=O)N1CCC(CCn2c(Sc3cc4c(cc3Br)OCO4)nc3c(N)ncnc32)CC1 [Example 732, tert-Butyl(2S)-2-{[4-(2-{6-amino-8-[(6-bromo-1,3-benzodioxol-5-yl)thio]-9H-purin-9-yl}ethyl)piperidin-1-yl]carbonyl}piperidine-1-carboxylate] | > 5000 |
| C[C@@H](NC(=O)OC(C)(C)C)C(=O)N1CCC[C@@H](CCn2c(Sc3cc4c(cc3Br)OCO4)nc3c(N)ncnc32)C1 [Example 734, tert-Butyl{(1R)-2-[(3S)-3-(2-{6-amino-8-[(6-bromo-1,3-benzodioxol-5-yl)thio]-9H-purin-9-yl}ethyl)piperidin-1-yl]-1-methyl-2-oxoethyl}carbamate] | > 2000 |
| C[C@H](N)C(=O)N1CCC(CCn2c(Sc3cc4c(cc3Br)OCO4)nc3c(N)ncnc32)CC1 [Example 742, 9-(2-{1-[(2S)-2-Aminopropanoyl]piperidin-4-yl}ethyl)-8-[(6-bromo-1,3-benzodioxol-5-yl)thio]-9H-purin-6-amine] | 140 |
| C[C@@H](N)C(=O)N1CCCC(CCn2c(Sc3cc4c(cc3Br)OCO4)nc3c(N)ncnc32)C1 (stereo partly drawn) [Example 743, 9-(2-{1-[(2R)-2-Aminopropanoyl]piperidin-3-yl}ethyl)-8-[(6-bromo-1,3-benzodioxol-5-yl)thio]-9H-purin-6-amine] | 40 |
| CC(C)C[C@H](N)C(=O)N1CCC(CCn2c(Sc3cc4c(cc3Br)OCO4)nc3c(N)ncnc32)CC1 [Example 744, 9-(2-{1-[(2S)-2-Amino-4-methylpentanoyl]piperidin-4-yl}ethyl)-8-[(6-bromo-1,3-benzodioxol-5-yl)thio]-9H-purin-6-amine] | 68 |
| CC(C)[C@H](N)C(=O)N1CCCC(CCn2c(Sc3cc4c(cc3Br)OCO4)nc3c(N)ncnc32)C1 (stereo partly drawn) [Example 745, 9-(2-{1-[(2S)-2-Amino-3-methylbutanoyl]piperidin-3-yl}ethyl)-8-[(6-bromo-1,3-benzodioxol-5-yl)thio]-9H-purin-6-amine] | 123 |
| C[C@@H](N)C(=O)N1CCC(CCn2c(Sc3cc4c(cc3Br)OCO4)nc3c(N)ncnc32)CC1 [Example 746, 9-(2-{1-[(2R)-2-Aminopropanoyl]piperidin-4-yl}ethyl)-8-[(6-bromo-1,3-benzodioxol-5-yl)thio]-9H-purin-6-amine] | 240 |
| C[C@H](N)C(=O)N1CCCC(CCn2c(Sc3cc4c(cc3Br)OCO4)nc3c(N)ncnc32)C1 (stereo partly drawn) [Example 747, 9-(2-{1-[(2S)-2-Aminopropanoyl]piperidin-3-yl}ethyl)-8-[(6-bromo-1,3-benzodioxol-5-yl)thio]-9H-purin-6-amine] | 110 |
| CC(C)C[C@H](N)C(=O)N1CCCC(CCn2c(Sc3cc4c(cc3Br)OCO4)nc3c(N)ncnc32)C1 (stereo partly drawn) [Example 748, 9-(2-{1-[(2S)-2-Amino-4-methylpentanoyl]piperidin-3-yl}ethyl)-8-[(6-bromo-1,3-benzodioxol-5-yl)thio]-9H-purin-6-amine] | 210 |
| CN[C@@H](C)C(=O)N1CCC(CCn2c(Sc3cc4c(cc3Br)OCO4)nc3c(N)ncnc32)CC1 [Example 749, 8-[(6-Bromo-1,3-benzodioxol-5-yl)thio]-9-(2-{1-[(2S)-2-(methylamino)propanoyl]piperidin-4-yl}ethyl)-9H-purin-6-amine] | 330 |
| CC(C)(N)C(=O)N1CCC(CCn2c(Sc3cc4c(cc3Br)OCO4)nc3c(N)ncnc32)CC1 [Example 750, 9-{2-[1-(2-Amino-2-methylpropanoyl)piperidin-4-yl]ethyl}-8-[(6-bromo-1,3-benzodioxol-5-yl)thio]-9H-purin-6-amine] | 180 |
| Nc1ncnc2c1nc(Sc1cc3c(cc1Br)OCO3)n2CCC1CCN(C(=O)C2(N)CC2)CC1 [Example 751, 9-(2-{1-[(1-Amino-cyclopropyl)carbonyl]piperidine-4-yl}ethyl)-8-[(6-bromo-1,3-benzodioxol-5-yl)thio]-9H-purin-6-amine] | 195 |
| Nc1ncnc2c1nc(Sc1cc3c(cc1Br)OCO3)n2CCC1CCN(C(=O)[C@@H]2CCN2)CC1 [Example 752, 9-(2-{1-[(2S)-Azetidin-2-ylcarbonyl]piperidin-4-yl}ethyl)-8-[(6-bromo-1,3-benzo-dioxol-5-yl)thio]-9H-purin-6-amine] | 130 |
| Nc1ncnc2c1nc(Sc1cc3c(cc1Br)OCO3)n2CCC1CCN(C(=O)[C@@H]2CCCN2)CC1 [Example 753, 8-[(6-Bromo-1,3-benzodioxol-5-yl)thio]-9-[2-(1-L-prolyl-piperidin-4-yl)ethyl]-9H-purin-6-amine] | 59 |
| Nc1ncnc2c1nc(Sc1cc3c(cc1Br)OCO3)n2CCC1CCN(C(=O)[C@@H]2CCCCN2)CC1 [Example 754, 8-[(6-Bromo-1,3-benzodioxol-5-yl)thio]-9-(2-{1-[(2S)-piperidin-2-ylcarbonyl]piperidin-4-yl}ethyl)-9H-purin-6-amine] | 50 |
| C[C@@H](N)C(=O)N1CCC[C@@H](CCn2c(Sc3cc4c(cc3Br)OCO4)nc3c(N)ncnc32)C1 [Example 755, 9-(2-{(3S)-1-[(2R)-2-Aminopropanoyl]piperidin-3-yl}ethyl)-8-[(6-bromo-1,3-benzodioxol-5-yl)thio]-9H-purin-6-amine] | 140 |
| C[C@H](O)C(=O)N1CCC(CCn2c(Sc3cc4c(cc3Br)OCO4)nc3c(N)ncnc32)CC1 [Example 757, (2S)-1-[4-(2-{6-amino-8-[(6-bromo-1,3-benzodioxol-5-yl)thio]-9H-purin-9-yl}ethyl)piperidin-1-yl]-1-oxopropan-2-ol] | 205 |
| Nc1ncnc2c1nc(Sc1cc3c(cc1Br)OCO3)n2CCC1CCN(C(=O)CO)CC1 [Example 760, 2-[4-(2-{6-Amino-8-[(6-bromo-1,3-benzodioxol-5-yl)thio]-9H-purin-9-yl}ethyl)piperidin-1-yl]-2-oxoethanol] | 325 |
| C[C@H](O)C(=O)N1CCC(CCn2c(Sc3ccc4c(c3)CCO4)nc3c(N)ncnc32)CC1 [Example 768, (2S)-1-(4-{2-[6-Amino-8-(2,3-dihydro-1-benzofuran-5-ylthio)-9H-purin-9-yl]ethyl}piperidin-1-yl)-1-oxopropan-2-ol] | > 5000 |
| Nc1ncnc2c1nc(Sc1cc3c(cc1Br)OCO3)n2CCC1CCN(C(=O)[C@@H](O)CO)CC1 [Example 771, (2S)-3-[4-(2-{6-amino-8-[(6-bromo-1,3-benzodioxol-5-yl)thio]-9H-purin-9-yl}ethyl)piperidin-1-yl]-3-oxopropane-1,2-diol] | 120 |
| C[C@H](NC(=O)OC(C)(C)C)C(=O)N1CCC(CCn2c(Br)nc3c(N)ncnc32)CC1 [Example 772, tert-Butyl ((1S)-2-{4-[2-(6-amino-8-bromo-9H-purin-9-yl)ethyl]piperidin-1-yl}-1-methyl-2-oxoethyl)carbamate] | > 5000 |
| C[C@H](NC(=O)OC(C)(C)C)C(=O)N1CCC(CCn2c(Sc3nc4cccc(Cl)c4s3)nc3c(N)ncnc32)CC1 [Example 773, tert-Butyl {(1S)-2-[4-(2-{6-amino-8-[(7-chloro-1,3-benzothiazol-2-yl)thio]-9H-purin-9-yl}ethyl)piperidin-1-yl]-1-methyl-2-oxoethyl}carbamate] | 390 |
| C[C@H](N)C(=O)N1CCC(CCn2c(Sc3nc4cccc(Cl)c4s3)nc3c(N)ncnc32)CC1 [Example 774, 9-(2-{1-[(2S)-2-Aminopropanoyl]piperidin-4-yl}ethyl)-8-[(7-chloro-1,3-benzothiazol-2-yl)thio]-9H-purin-6-amine] | 200 |
| C[C@H](O)C(=O)N1CCC(CCn2c(Sc3nc4cccc(Cl)c4s3)nc3c(N)ncnc32)CC1 [Example 775, (2S)-1-[4-(2-{6-Amino-8-[(7-chloro-1,3-benzothiazol-2-yl)thio]-9H-purin-9-yl}ethyl)piperidin-1-yl]-1-oxopropan-2-ol] | 1800 |
| CC(=O)N1CCC[C@H]1C(=O)N1CCC(CCn2c(Sc3cc4c(cc3Br)OCO4)nc3c(N)ncnc32)CC1 [Example 776, 9-{2-[1-(1-Acetyl-L-prolyl)piperidin-4-yl]ethyl}-8-[(6-bromo-1,3-benzodioxol-5-yl)thio]-9H-purin-6-amine] | 310 |
| C[C@H](NC(=O)OC(C)(C)C)C(=O)N1CCCC(Cn2c(Sc3cc4c(cc3Br)OCO4)nc3c(N)ncnc32)C1 (stereo partly drawn) [Example 778, tert-Butyl {(1S)-2-[3-({6-amino-8-[(6-bromo-1,3-benzodioxol-5-yl)thio]-9H-purin-9-yl}methyl)piperidin-1-yl]-1-methyl-2-oxoethyl}carbamate] | 2000 |

The compounds below were run on Luciferase refolding (assay: Luciferase refolding assay). Conditions: compound fluorescent in FP binding assay.
Format: biochemical
Set-up: key: *Compound is active in Luciferase refolding assay

| SMILES | active in Luciferase refolding assay (asterisk footnote) |
| --- | --- |
| CC(C)(C)OC(=O)N1CCOC(CCn2cnc(N)c3nc(Sc4cc5c(cc4Br)OCO5)nc2-3)C1 (stereo not drawn) [Example 368, tert-Butyl 2-(2-{6-amino-8-[(6-bromo-1,3-benzodioxol-5-yl)thio]-3H-purin-3-yl}ethyl)morpholine-4-carboxylate] | *Fluorescent |
